Results on 15 compounds are retold here after patent US5147888A, “N-terminal indolyy indolylalkylaminodiol β-amino acid derivatives” (G. D. Searle & Co., priority 1991, dated 1992).

Square brackets hold non-standard residues; d marks the D form. Peptide text beside a SMILES is read from it. * marks the point of attachment. Sta = CC(C)C[C@H](N)[C@@H](O)CC(=O)O; Isovaleryl = CC(C)CC(=O)*

The target in one assay is T1, human renin (Homo sapiens, UniProt P00797).
T1 construct: purchased National Institute for Biological Standards, London
T1 sequence (P00797 67-406): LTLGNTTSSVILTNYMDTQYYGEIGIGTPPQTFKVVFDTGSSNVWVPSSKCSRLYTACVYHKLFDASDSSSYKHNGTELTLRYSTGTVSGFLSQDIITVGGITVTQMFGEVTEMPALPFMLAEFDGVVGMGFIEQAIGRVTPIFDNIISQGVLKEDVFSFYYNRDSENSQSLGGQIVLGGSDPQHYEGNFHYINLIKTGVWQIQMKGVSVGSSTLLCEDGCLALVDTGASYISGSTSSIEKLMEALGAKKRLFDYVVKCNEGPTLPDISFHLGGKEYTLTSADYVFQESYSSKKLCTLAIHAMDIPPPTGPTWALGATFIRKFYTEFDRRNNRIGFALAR
Nature of the assay: in vitro human renin inhibition assay (angiotensin I determined by radioimmunoassay). It counts as biochemical. To be noted: pH 7.4, 37° C., two hours; for inhibition at 1 µM: 10^-6 M. How it is done: Compounds of Formula I were evaluated as inhibitors of human renin in an in vitro assay. This human renin inhibition test has been previously described in detail [Papaioannou et al., Clinical and Experimental Hypertension, A7(9), 1243-1257 (1985)]. Human renin was obtained from the National Institute for Biologivcal Standards, London. An incubation mixture was prepared containing in a total volume of 0.25 mL 100 mM Tris-acetate buffer at pH 7.4, 25×10^-6 Goldblatt units of renin, 0.05 mL of plasma from human volunteers taking oral contraceptives,6.0 mM sodium EDTA, 2.4 mM phenylmethyl sulfonyl fluoride, 1.5 mM 8-hydroxyquinoline, 0.4 mg/mL BSA, and 0.024 mg/mL neomycin sulfate. This mixture was incubated for two hours at 37° C. in the presence or absence of renin inhibitors. The produced angiotensin I was determined by radioimmunoassay (New England Nuclear kit). Test compounds to be assayed were dissolved in DMSO and diluted with 100 mM Tris-acetate buffer at pH 7.4 containing 0.5% BSA to the appropriate Concentration. The final concentration of organic solvent in the reaction mixture was less than 1%. Control incubations at 37° C. were used to correct for effects of organic solvent on renin activity.

The test system of a further assay is hog renin. The note with it: after the injection of hog renin into nephrectomized rats; cited from earlier work.
In the next assay the test system is renin. To be noted: cited from earlier work.
In the next assay the test system is cathepsin D. The note with it: cited from earlier work.
The next assay has as its system pepsin. To be noted: cited from earlier work.

With `CC(C)C[C@H](O)[C@H](O)[C@H](CC1CCCCC1)NC(=O)[C@H](C)CNC(=O)CCCc1ccccc1` (relative stereo) [Example 6, N-[3-[[1S,1R*-(cyclohexylmethyl)-2S*,3R*-dihydroxy-5-methylhexyl]amino]-2S*-methyl-3-oxopropyl]benzenebutanamide], at human renin, half-maximal inhibition (IC50) required 125 nM.
The same measure, in the same setting: then `CC(C)C[C@H](O)[C@H](O)[C@H](CC1CCCCC1)NC(=O)[C@H](C)CNC(=O)c1cc2ccccc2[nH]1` (relative stereo) [Example 7, N-[3-[[1S,1R*-(cyclohexylmethyl)-2S*,3R*-dihydroxy-5-methylhexyl]amino]-2S*-methyl-3-oxopropyl]-1H-indole-2-carboxamide], with 26 nM; and `CC(C)C[C@H](O)[C@H](O)[C@H](CC1CCCCC1)NC(=O)[C@H](C)CN(C)C(=O)CCCc1ccccc1` (relative stereo) [Example 10, N-[3-[[1S,1R*-(cyclohexylmethyl)-2S*,3R*-dihydroxy-5-methylhexyl]amino-]-2S*-methyl-3-oxopropyl]-N-methyl-benzenebutanamide], with 115 nM.
The same measure, in the same setting: then `CC(C)C[C@H](O)[C@H](O)[C@H](CC1CCCCC1)NC(=O)[C@H](C)CNC(=O)CCCC1CCCCC1` (relative stereo) [Example 11, N-[3-[[1S,1R*-(cyclohexylmethyl)-2S*,3R*-dihydroxy-5-methylhexyl]amino]-2S*-methyl-3-oxopropyl]cyclohexane-butanamide], with 180 nM.
With `CC(C)C[C@H](O)[C@H](O)[C@H](CC1CCCCC1)NC(=O)[C@H](C)CN(C)C(=O)CCCC1CCCCC1` (relative stereo) [Example 12, N-[3-[[1S,1R*-(cyclohexylmethyl)-2S*,3R*-dihydroxy-5-methylhexyl]amino]-2S*-methyl-3-oxopropyl]-N-methyl-cyclohexanebutanamide], at 1 µM the inhibition against human renin was 23%.
In turn, `COc1ccc(CCC(=O)NC[C@@H](C)C(=O)N[C@@H](CC2CCCCC2)[C@@H](O)[C@@H](O)CC(C)C)cc1` [Example 13, N-[3-[[1S,1R*-(cyclohexylmethyl)-2S*,3R*-dihydroxy-5-methylhexyl]amino]-2S*-methyl-3-oxopropyl]-4-methoxybenzenepropanamide] returned an inhibition at 0.5 µM against human renin (5 × 10^-7 M) of 30%.
With `CCn1cc(C(=O)NC[C@@H](C)C(=O)N[C@@H](CC2CCCCC2)[C@@H](O)[C@@H](O)CC(C)C)c(=O)c2ccc(C)nc21` [Example 16, N-[3-[[1S,1R*-(cyclohexylmethyl)-2S*,3R*-dihydroxy-5-methylhexylamino]amino]-2S*-methyl-3-oxopropyl-nalidixylamide], the IC50 against human renin turned out to be 450 nM.
In turn, `CC(C)C[C@H](O)[C@H](O)[C@H](CC1CCCCC1)NC(=O)[C@H](C)CNC(=O)c1c[nH]c2ccccc12` [Example 20, N-[3-[[1S,1R*-(cyclohexylmethyl)-2S*,3R*-dihydroxy-5-methylhexyl]amino]-2S*-methyl-3-oxopropyl]-1H-indole3-carboxamide] came in with an inhibition at 10 µM on human renin (10^-5 M) of 27%.
`CC(C)C[C@H](O)[C@H](O)[C@H](CC1CCCCC1)NC(=O)[C@H](C)CNC(=O)Cc1c[nH]c2ccccc12` [Example 21, N-[3-[[1S,1R*-(cyclohexylmethyl)-2S*,3R*-dihydroxy-5-methylhexyl]amino]-2S*-methyl-3-oxopropyl]-1H-indole3-acetamide]: at human renin, the inhibition at 1 µM was found to be 30%.
In the case of `CC(C)C[C@H](O)[C@H](O)[C@H](CC1CCCCC1)NC(=O)[C@H](C)CNC(=O)CCc1c[nH]c2ccccc12` [Example 22, N-[3-[[1S,1R*-(cyclohexylmethyl)-2S*,3R*-dihydroxy-5-methylhexyl]amino]-2S*-methyl-3-oxopropyl]-1H-indole3-propanamide], it took 30 nM to reach half-maximal inhibition at human renin (IC50).
For `CC(C)C[C@H](O)[C@H](O)[C@H](CC1CCCCC1)NC(=O)[C@H](C)CNC(=O)c1cc2cccc(Cl)c2o1` [Example 23], the IC50 against human renin turned out to be 1800 nM.
Turning to `COc1cccc2cc(C(=O)NC[C@@H](C)C(=O)N[C@@H](CC3CCCCC3)[C@@H](O)[C@@H](O)CC(C)C)oc12` [Example 24, N-[3-[[1S,1R*-(cyclohexylmethyl)-2S*,3R*-dihydroxy-5-methylhexyl]amino]-2S*-methyl-3-oxopropyl]-7-methoxy-benzofuran-2-carboxamide], the IC50 at human renin was 3000 nM.
Still for that read-out and setting: then `CC(C)C[C@H](O)[C@H](O)[C@H](CC1CCCCC1)NC(=O)[C@H](C)CNC(=O)c1coc2ccccc2c1=O` [Example 25, N-[3-[[1S,1R*-(cyclohexylmethyl)-2S*,3R*-dihydroxy-5-methyhexyl]amino]-2S*- methyl-3-oxopropyl]-4-oxo-4H-1-benzopyran-3-carboxamide], with 1100 nM.
The same measure, in the same setting: with `CC(C)C[C@H](O)[C@H](O)[C@H](CC1CCCCC1)NC(=O)[C@H](C)CNC(=O)c1cc(=O)c2ccccc2o1` [Example 26, N-[3-[[1S,1R*-(cyclohexylmethyl)-2S*,3R*-dihydroxy-5-methylhexyl]amino]-2S*-methyl-3-oxopropyl]-4-oxo-4H-1-benzopyran-2-carboxamide] the figure was 520 nM.
Turning to `CC(C)CC(=O)N[C@H](C(=O)N[C@H](C(=O)N[C@@H](CC(C)C)[C@@H](O)CC(=O)N[C@@H](C)C(=O)N[C@@H](CC(C)C)[C@@H](O)CC(=O)O)C(C)C)C(C)C` [pepstatin] (Isovaleryl-VV[Sta]A[Sta]-OH), the “blood pressure reduction in vivo” value in the assay with hog renin is on record as “reduce blood pressure”. In the assay on renin, the “inhibitor of aspartyl proteases: renin” value is “inhibitor”. For the same compound, the “inhibitor of aspartyl proteases: cathepsin D” value with cathepsin D is reported as “inhibitor”. For the same compound, in the assay on pepsin, the “inhibitor of aspartyl proteases: pepsin” value is reported as “inhibitor”.
